The values below come from patent US6946480B2, “Glutaminyl based DPIV inhibitors” (priority 2002, dated 2005).

Data set [1] can be described thus: Plasma stability (half-life of inhibitory potency in human plasma). The format is in vitro ADME. The method, then:
In order to investigate the stability of glutaminyl pyrrolidine or glutaminyl thiazolidine in human plasma, the activity of DPIV in plasma was determined at a defined time. The average DPIV activity in human plasma was determined as 43.69 U/ml. In the working solution, the plasma was diluted in 0.9% NaCl to fix the DPIV activity level at 25 U/ml.
Plasma and glutaminyl pyrrolidine or glutaminyl thiazolidine in different concentrations (5*10^−5, 2.5*10^−5, 1.25*10^−5M in plasma) were incubated at 37° C. At defined time points samples were taken using a pipette roboter (Gilson 215, Liquid handler, Gilson) and transferred in a microtiter plate containing 5*10^−5M glycylprolylaminomethylcoumarine in 0.9% NaCl+015% Brij per well. After 6 min the reaction was stopped by addition of isoleucylthiazolidine (5*10^−5M in 0.9% NaCl solution).
Fluorescence measurement was performed against 0.9% NaCl in plasma (reference standard) using a plate reader (HTS7000plus, Applied Biosystems, Weiterstadt, Germany). The half-life of the inhibitory potency of glutaminyl pyrrolidine or glutaminyl thiazolidine was calculated by plotting the enzyme activity versus reaction time.

Data set [2] addresses T1, Dipeptidyl Peptidase I (DP I, Cathepsin C) (Rattus norvegicus, UniProt P80067).
T1 construct: purchased Qiagen GmbH, Hilden, Germany
As to the kind of experiment: Cross reacting enzymes - dipeptidyl peptidase I. The note with it: concentration range 1*10^−5 M-1*10^−7 M. The class given is biochemical. The method, then: Glutaminyl pyrrolidine or glutaminyl thiazolidine were tested for their cross reacting potency against dipeptidyl peptidase I, prolyl oligopeptidase and prolidase.
DP I or cathepsin C is a lysosomal cysteine protease which cleaves off dipeptides from the N-terminus of their substrates (Gutman, H. R. & Fruton, J. S., 1948, J. Biol: Chem., 174, 851-858) . It is classified as a cysteine protease.
The enzyme used was purchased from Qiagen (Qiagen GmbH, Hilden, Germany). In order to get a fully active enzyme, the enzyme was diluted 1000fold in MES buffer pH5,6 (40 mM MES, 4 mM DTT, 4 mM KCl, 2 mM EDTA, 0.015% Brij) and pre-incubated for 30 min at 30° C.
50 μl glutaminyl pyrrolidine or glutaminyl thiazolidine in a concentration range of 1*10^−5 M-1*10^−7 M were admixed with 110 μl buffer-enzyme-mixture. The assay mixture was pre-incubated at 30° C. for 15 min After pre-incubation, 100 μl histidylseryl-β-nitroaniline (2*10^−5 M) were added and measurement of yellow color development due to β-nitroaniline release was performed at 30° C. and […] for 10 min, using a plate reader (HTS7000 plus, Applied Biosystems, Weiterstadt, Germany).
The IC50-values were calculated using Graphit 4.0.15 (Erithacus Software, Ltd., UK).

The target of data set [3] is T2, plasma DPIV activity (Rattus norvegicus, UniProt P14740).
T2 construct: The assay mixture for determination of plasma DPIV activity consisted of 80 μl reagent and 20 μl plasma sample; from tissue; host or cells: plasma of male Wistar rats
T2 sequence (P14740 37-767 limits assumed): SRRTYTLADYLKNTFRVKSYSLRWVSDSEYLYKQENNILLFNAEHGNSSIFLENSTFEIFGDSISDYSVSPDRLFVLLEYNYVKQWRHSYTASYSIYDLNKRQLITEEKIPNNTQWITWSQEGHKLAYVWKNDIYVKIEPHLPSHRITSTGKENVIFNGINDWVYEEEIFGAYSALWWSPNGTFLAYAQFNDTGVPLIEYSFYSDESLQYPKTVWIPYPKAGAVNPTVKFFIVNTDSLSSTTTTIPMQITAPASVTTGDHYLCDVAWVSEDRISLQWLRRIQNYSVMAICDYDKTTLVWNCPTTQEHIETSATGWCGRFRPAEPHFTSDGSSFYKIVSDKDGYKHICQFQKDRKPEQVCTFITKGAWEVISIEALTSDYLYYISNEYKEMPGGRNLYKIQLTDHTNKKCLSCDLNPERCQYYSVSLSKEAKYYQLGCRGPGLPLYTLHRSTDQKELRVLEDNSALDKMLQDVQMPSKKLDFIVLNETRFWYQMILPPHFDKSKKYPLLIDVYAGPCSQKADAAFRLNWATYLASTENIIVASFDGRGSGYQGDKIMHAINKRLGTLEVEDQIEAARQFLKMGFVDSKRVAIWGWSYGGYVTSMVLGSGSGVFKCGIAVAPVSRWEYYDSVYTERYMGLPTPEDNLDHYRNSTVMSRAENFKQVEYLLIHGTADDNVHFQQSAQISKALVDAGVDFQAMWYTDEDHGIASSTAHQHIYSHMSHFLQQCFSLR
In words: Plasma DPIV inhibiting activity after intravasal and oral administration to Wistar rats. The class given is in vivo. The note with it: 100 mg/kg b.w. vs. placebo, oral and intra-vasal administration. The protocol:
Male Wistar rats (Shoe: Wist(Sho)) with a body weight ranging between 250 and 350 g were purchased from Tierzucht Schönwalde (Schönwalde, Germany).
Animals were single-caged under conventional conditions with controlled temperature (22±2° C.) on a 12/12 hours light/dark cycle (light on at 06:00 AM). Standard pelleted chow (ssniff® Soest, Germany) and tap water acidified with HCl were allowed ad libitum.
After ≧one week of adaptation at the housing conditions, catheters were implanted into the carotid artery of Wistar rats under general anaesthesia (i.p. injection of 0.25 ml/kg b.w. Rompun® [2%], BayerVital, Germany and 0.5 ml/kg b.w. Ketamin 10, Atarost GmbH & Co., Twistringen, Germany). The animals were allowed to recover for one week. The catheters were flushed with heparin-saline (100 IU/ml) three times per week. In case of catheter dysfunction, a second catheter was inserted into the contra-lateral carotid artery of the respective rat. After one week of recovery from surgery, this animal was reintegrated into the study. In case of dysfunction of the second catheter, the animal was withdrawn from the study. […]
Statistical evaluations and graphics were performed with PRISM® 3.02 (GraphPad Software, Inc.). All parameters were analysed in a descriptive manner including mean and SD.

SMILES strings stand for the structures.

T1 sequence (P80067 25-134 limits assumed): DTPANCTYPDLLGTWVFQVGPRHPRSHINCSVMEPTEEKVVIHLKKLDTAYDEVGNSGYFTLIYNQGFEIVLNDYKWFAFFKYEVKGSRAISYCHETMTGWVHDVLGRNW
T1 sequence (P80067 230-393 limits assumed): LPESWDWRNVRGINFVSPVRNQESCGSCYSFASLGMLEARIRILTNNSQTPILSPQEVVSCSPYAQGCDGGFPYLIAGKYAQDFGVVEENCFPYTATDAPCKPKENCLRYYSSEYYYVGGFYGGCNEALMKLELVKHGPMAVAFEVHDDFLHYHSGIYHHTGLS
T1 sequence (P80067 394-462 limits assumed): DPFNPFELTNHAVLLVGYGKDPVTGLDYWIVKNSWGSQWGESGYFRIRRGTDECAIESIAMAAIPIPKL

Consider `NC(=O)CC[C@H](N)C(=O)N1CCCC1` [glutaminyl pyrrolidine], for which, in data set [1] (37° C., 5*10^−5, 2.5*10^−5, 1.25*10^−5M), the “half-life of the inhibitory potency in human plasma” value was “no half-time could be determined”. In data set [1] (over 22 hours), the “stability in human plasma” value is “stable in human plasma over 22 hours”. For the same compound, in data set [2], the “inhibition of DP I enzyme activity” value is listed as “no inhibition”. The “inhibition of plasma DPIV activity in vivo” value in data set [3] was “inhibited plasma DPIV activity”.
